Data published in paper PMC3983201, “6-Methoxyflavanones as Bitter Taste Receptor Blockers for hTAS2R39” (PLoS ONE, 2014).
Where two headings read alike, the source gives them in different places.

How the values were obtained:
[1] = target: T1, hTAS2R39 (Homo sapiens, UniProt P59534); assay: Calcium assay of hTAS2R39 activation/inhibition in HEK293 T-Rex Flp-In cells; assay type: cell-based; details: for reduction of ECG response on hTAS2R39 (screening for inhibition): simultaneous application of 200 μM ECG and 250 μM flavanone, inhibition when response ratio <1; for EC80 on hTAS2R39: agonist dose-response curve
T1 construct: first 45 amino acids of rat somatostatin receptor type 3 (sst3 membrane-targeting tag) (N); expressed in transfected cells; host or cells: HEK293 T-Rex Flp-In cells stably expressing Gα16-gust44; receptor in pcDNA5/FRT, induced with doxycycline
T1 sequence (P59534 1-338): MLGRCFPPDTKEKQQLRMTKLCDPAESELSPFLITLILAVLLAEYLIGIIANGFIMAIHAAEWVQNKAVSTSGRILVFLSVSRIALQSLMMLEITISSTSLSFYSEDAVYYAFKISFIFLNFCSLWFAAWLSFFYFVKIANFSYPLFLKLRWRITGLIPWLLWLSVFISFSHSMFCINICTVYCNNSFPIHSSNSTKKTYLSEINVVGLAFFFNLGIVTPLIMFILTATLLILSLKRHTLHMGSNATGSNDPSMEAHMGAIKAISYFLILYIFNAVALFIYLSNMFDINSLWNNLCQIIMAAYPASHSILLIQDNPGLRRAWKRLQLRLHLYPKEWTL

[2] = target: T2, hTAS2R14 (Homo sapiens, UniProt Q9NYV8); assay: Calcium assay of hTAS2R14 activation/inhibition in HEK293 T-Rex Flp-In cells; assay type: cell-based; details: for IC50, Simultaneous / Threshold, Simultaneous: simultaneous addition, n.b. = no blocking; for EC80 on hTAS2R14: agonist concentration used in inhibition tests
T2 construct: first 45 amino acids of rat somatostatin receptor type 3 (sst3 membrane-targeting tag) (N); expressed in transfected cells; host or cells: HEK293 T-Rex Flp-In cells stably expressing Gα16-gust44; induced with doxycycline
T2 sequence (Q9NYV8 1-317): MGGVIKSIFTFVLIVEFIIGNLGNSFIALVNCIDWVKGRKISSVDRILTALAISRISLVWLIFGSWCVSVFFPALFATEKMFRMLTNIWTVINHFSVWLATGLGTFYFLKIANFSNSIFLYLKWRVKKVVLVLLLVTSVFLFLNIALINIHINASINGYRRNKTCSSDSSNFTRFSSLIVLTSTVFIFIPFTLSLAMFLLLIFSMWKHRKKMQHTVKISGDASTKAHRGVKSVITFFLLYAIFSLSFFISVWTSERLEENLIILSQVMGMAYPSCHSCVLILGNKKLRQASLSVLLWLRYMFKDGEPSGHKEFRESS
Text: For functional expression of the human bitter taste receptor hTAS2R39, HEK293 T-Rex Flp-In cells (Invitrogen, San Diego, CA, USA) were used, stably expressing the chimeric G-protein α-subunit Gα16-gust44 (cloned into pcDNA4 (Invitrogen)) and the human bitter receptor genes for hTAS2R39 (cloned into pcDNA5/FRT (Invitrogen)). The bitter receptor gene contained a DNA sequence encoding the first 45 amino acids of rat somatostatin receptor type 3 at its 5′ end (the receptor expression was achieved according to [18] with exception of the HSV-tag), in order to improve membrane targeting of the receptor protein. The same procedure was applied for stable expression of hTAS2R14. Cells were maintained in Dulbecco's Modified Eagle's Medium (DMEM) and 10% (v/v) tetracycline-free FBS (both Lonza, Verviers, Belgium) supplemented with blasticidin (5 μg/mL), geneticin (400 μg/mL) and hygromycin (100 μg/mL) (all from Invitrogen). Cells were grown and maintained at 37 °C and 5% (v/v) CO2.
Cells were seeded into poly-L-lysine-coated (Sigma-Aldrich) 96-well plates (black wall, clear bottom, Greiner bio-one, Frickenhausen, Germany) at a density of 7*10^3 cells in 100 μL/well and cultured for 24 h. Transcription of the receptors was induced by adding 0.25 μg/mL doxycycline (Sigma-Aldrich). […] One hour after loading, cells were washed with Tyrode's buffer and taken up in Tyrode's buffer. Stock solutions of test compounds were prepared in DMSO and diluted to the appropriate concentration in Tyrode's buffer, not exceeding a DMSO concentration of 1% (v/v).
(§1) Two methods of compound administration were applied: simultaneous and stepwise addition of potential antagonist and agonist. The first 17 s before compound addition were used for baseline determination. For the simultaneous method, agonist and potential antagonist were pre-mixed, administered after 17 s, and fluorescence was measured for in total 90 s. For the stepwise method, after 17 s, the potential antagonist was added, fluorescence was measured until 120 s, and after 120 s the agonist was added and measured for another 120 s, in total 240 s. […] Each experiment was performed at least in duplicate in separate experiments (as indicated for each figure).
Data processing was done as reported previously. In brief, SoftMax Pro 5.4 software (Molecular Devices Corporation) was used to plot the fluorescence signals. The fluorescence value (ΔF/F0), representing receptor activity, was calculated by subtracting the baseline fluorescence (F0) prior to loading from the maximum fluorescence (F) after compound addition, divided by the signal of the baseline in order to normalize background fluorescence. Dose-response curves were established as non-linear regression curves using Graph Pad Prism (version 4 for Windows, Graph Pad Software, San Diego, CA, USA). Half-maximal effective concentrations (EC50) and half-maximal inhibitory concentrations (IC50) were calculated. Error bars reflect the standard error of the mean (SEM). Statistical analysis was performed in Graph Pad Prism (one-way ANOVA at 5% risk level, followed by Bonferroni's post hoc test).
Inhibition was indicated when [drawing 1] . In case of indicated inhibition, flavanones were applied at different concentrations, in order to test for dose-dependent inhibition, at the EC80 concentration of the agonist. […] To investigate the specificity of flavanones for inhibition of hTAS2R39 and hTAS2R14, another bitter taste receptor, hTAS2R16 (not known to be activated by flavonoids), was used in inhibition experiments ( File S3 ) towards its agonist salicin.

[3] = target: T3, hTAS2R16 (Homo sapiens, UniProt Q9NYV7); assay: Calcium assay of hTAS2R16 activation/inhibition (salicin as agonist); assay type: cell-based
T3 construct: expressed in transfected cells; host or cells: induced versus non-induced cells
T3 sequence (Q9NYV7 1-291): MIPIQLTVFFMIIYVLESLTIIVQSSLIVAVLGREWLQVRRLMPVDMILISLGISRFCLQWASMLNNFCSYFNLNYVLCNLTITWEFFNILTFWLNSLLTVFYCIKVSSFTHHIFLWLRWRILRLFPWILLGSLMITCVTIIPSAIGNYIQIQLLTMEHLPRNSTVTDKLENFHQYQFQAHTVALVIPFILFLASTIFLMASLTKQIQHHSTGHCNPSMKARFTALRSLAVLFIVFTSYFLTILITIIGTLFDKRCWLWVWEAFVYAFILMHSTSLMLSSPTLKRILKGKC
Experimental: Cells were seeded into poly-L-lysine-coated (Sigma-Aldrich) 96-well plates (black wall, clear bottom, Greiner bio-one, Frickenhausen, Germany) at a density of 7*10^3 cells in 100 μL/well and cultured for 24 h. Transcription of the receptors was induced by adding 0.25 μg/mL doxycycline (Sigma-Aldrich). Cells were induced for 24 h and then loaded with the calcium-sensitive fluorescent dye Fluo-4-AM (2.5 μM, Invitrogen), which was dissolved in Tyrode's buffer containing 5% (v/v) tetracycline-free FBS (Lonza). One hour after loading, cells were washed with Tyrode's buffer and taken up in Tyrode's buffer. Stock solutions of test compounds were prepared in DMSO and diluted to the appropriate concentration in Tyrode's buffer, not exceeding a DMSO concentration of 1% (v/v).
as §1, with “Receptor activation or inhibition was measured via intracellular Ca^2+ release in a FlexStation II 384 or FlexStation III (Molecular Devices Corporation, Sunnyvale, CA, USA) by measuring fluorescence (excitation 485 nm/emission 520 nm) for either 90 s or 240 s at 37°C. Two” for “Two”
Screening for hTAS2R39 inhibition by flavanones was performed with simultaneous application of agonist (200 μM ECG) and putative antagonist (250 μM flavanone). Inhibition was indicated when [drawing 1] . In case of indicated inhibition, flavanones were applied at different concentrations, in order to test for dose-dependent inhibition, at the EC80 concentration of the agonist. Another agonist of hTAS2R39, denatonium benzoate, was used in inhibition experiments at 1.7 mM (EC80). hTAS2R14 inhibition was tested with 640 μM ECG or 70 μM genistein as agonists, representing their respective EC80 concentrations. To investigate the specificity of flavanones for inhibition of hTAS2R39 and hTAS2R14, another bitter taste receptor, hTAS2R16 (not known to be activated by flavonoids), was used in inhibition experiments ( File S3 ) towards its agonist salicin.
SUPPORTING INFORMATION to the article “6-Methoxyflavanones as Bitter Taste Receptor Blockers for hTAS2R39” by Roland, WSU; Gouka, RJ; Gruppen, H; Driesse, M; van Buren, L; Smit, G; Vincken, J-P File S3 Investigation of identified inhibitors on hTAS2R16.
To investigate whether the hTAS2R39 inhibitors 6,3’-dimethoxyflavanone (3), 4’- fluoro-6-methoxyflavanone (6), and 6-methoxyflavanone (11) were able to inhibit a bitter receptor not known for flavonoid activation, hTAS2R16 was selected for inhibition experiments. Measuring dose-response curves of the hTAS2R16 agonist […]
Figure S3. Inhibition of response of 10 mM salicin (---) on hTAS2R16 (induced (●), non-induced (○)) by 4’-fluoro-6-methoxyflavanone (6) after simultaneous addition (A) and stepwise addition (B), by 6,3’-dimethoxyflavanone (3) after simultaneous addition (C) and stepwise addition (D), and by 6-methoxyflavanone (11) after simultaneous addition (E) and stepwise addition (F). […]

[4] = target: T1, hTAS2R39; design: method as in PMID 24117141; details: cited from earlier work
[5] = test system: bitter taste; design: method as in PMID 16028996; details: in-vivo sensory masking, unknown mechanism; cited from earlier work
[6] = inhibition of hTAS2R14 response to 70 μM genistein
[7] = inhibition of hTAS2R14 response to 640 μM ECG
[8] = 0 μM 4′-fluoro-6-methoxyflavanone (6), stepwise addition, read-out: EC50 of agonist on hTAS2R39

COc1ccc2oc(-c3ccccc3)cc(=O)c2c1 [6-methoxyflavone, reference compound]
inhibition of hTAS2R39 activation ([1]; data not shown): unable to inhibit hTAS2R39 activation

COc1cccc(C2CC(=O)c3cc(OC)ccc3O2)c1 (stereo not drawn) [Compound 3, 6,3′-Dimethoxyflavanone]
IC50, Simultaneous [2, 6]: n.b. | Threshold, Simultaneous [2, 6]: n.b. | IC50, Simultaneous [2, 7]: n.b. | Threshold, Simultaneous [2, 7]: n.b. | IC50 ([2]; inhibition of hTAS2R14 response to 640 μM ECG, stepwise addition): ~250 µM | inhibition of salicin response on hTAS2R16 ([3]; 10 mM salicin, simultaneous and stepwise addition): no inhibition

O=C1C[C@@H](c2ccc(O)c(O)c2)Oc2cc(O)cc(O)c21 [Compound 4, Eriodictyol]
activation of hTAS2R39 in a previous study [4]: a activated hTAS2R39 in a previous study [16], but was selected for testing as antagonist due to ability to reduce bitter taste perception in sensory tests [9]. | reduction of the bitter taste of different chemical classes of bitter molecules [5]: up to 40%

O=C1CC(c2ccccc2)Oc2ccccc21 (stereo not drawn) [Compound 5, Flavanone]
reduction of ECG response on hTAS2R39 (screening for inhibition) [1]: did not show inhibitory activity | activation of hTAS2R39 in a previous study [4]: b no activation of hTAS2R39 in a previous study [16].

O=C1CC(c2ccccc2)Oc2ccc(O)cc21 (stereo not drawn) [Compound 8, 6-Hydroxyflavanone]
reduction of ECG response on hTAS2R39 (screening for inhibition) [1]: did not show inhibitory activity

O=C1CC(c2ccc(O)cc2)Oc2ccccc21 (stereo not drawn) [Compound 10, 4′-Hydroxyflavanone]
activation of hTAS2R39 in a previous study [4]: b no activation of hTAS2R39 in a previous study [16].

COc1ccc2c(c1)OC(c1ccccc1)CC2=O (stereo not drawn) [Compound 12, 7-Methoxyflavanone]
reduction of ECG response on hTAS2R39 (screening for inhibition) [1]: did not show inhibitory activity

COc1ccc(C2CC(=O)c3ccccc3O2)cc1 (stereo not drawn) [Compound 13, 4′-Methoxyflavanone]
reduction of ECG response on hTAS2R39 (screening for inhibition) [1]: did not show inhibitory activity

CC[N+](CC)(CC(=O)Nc1c(C)cccc1C)Cc1ccccc1 [Denatonium benzoate, denatonium benzoate, reference compound]
EC50 [1, 8]: 659 ± 334 µM | EC80 on hTAS2R39 [1]: 1700 µM | EC50 ([1]; agonist dose-response curve (data not shown), read-out: EC50 on hTAS2R39): 711 µM

O=C(O[C@@H]1Cc2c(O)cc(O)cc2O[C@@H]1c1ccc(O)c(O)c1)c1cc(O)c(O)c(O)c1 [ECG, Epicatechin gallate, reference compound]
EC50 [1, 8]: 128 ± 82 µM | EC80 on hTAS2R39 [1]: 200 µM | EC80 on hTAS2R14 [2]: 640 µM

O=c1c(-c2ccc(O)cc2)coc2cc(O)cc(O)c12 [genistein, reference compound]
EC80 on hTAS2R14 [2]: 70 µM

COc1cc([C@@H]2CC(=O)c3c(O)cc([O-])cc3O2)ccc1O.[Na+] [homoeriodictyol Na-salt, reference compound]
reduction of the bitter taste of different chemical classes of bitter molecules [5]: up to 40%

OCc1ccccc1O[C@@H]1O[C@H](CO)[C@@H](O)[C@H](O)[C@H]1O [salicin, reference compound]
EC80 on hTAS2R16 ([3]; agonist dose-response curve): 10000 µM
